In ChEMBL document CHEMBL6078630, “Design, synthesis, and bioactivity investigation of novel cyclic lipopeptide antibiotics targeting top-priority multidrug-resistant gram-negative bacteria” (Eur J Med Chem, 2024):
Converted amounts (≈) assume the structure as drawn. The source made the active and inactive calls. The rule behind the calls is not given here. Bridge positions count the residues as written; N and C are the ends. Square brackets hold non-standard residues; d marks the D form. Peptide text beside a SMILES is read from it. * marks the point of attachment. Heptanoyl(6-Me) = CC(C)CCCCC(=O)*; Dab = NCC[C@H](N)C(=O)O; Dap = NC[C@H](N)C(=O)O

Columns and labels:
[1] = test system: Klebsiella pneumoniae; experiment: Antibacterial activity against carbapenem-resistant Klebsiella pneumoniae clinical isolate KPN+19-15 assessed as inhibition of bacterial growth incubated for 16 to 20 hrs by CLSI protocol based broth microdilution method; assay type: functional; conditions: time 16-20 hrs
[2] = test system: Klebsiella pneumoniae; experiment: Antibacterial activity against carbapenem-resistant Klebsiella pneumoniae ATCC BAA-1705 assessed as inhibition of bacterial growth incubated for 16 to 20 hrs by CLSI protocol based broth microdilution method; assay type: functional; conditions: time 16-20 hrs
[3] = test system: Pseudomonas aeruginosa; experiment: Antibacterial activity against Pseudomonas aeruginosa ATCC 27853 assessed as inhibition of bacterial growth incubated for 16 to 20 hrs by CLSI protocol based broth microdilution method; assay type: functional; conditions: time 16-20 hrs
[4] = test system: Acinetobacter baumannii; experiment: Antibacterial activity against carbapenem-sensitive Acinetobacter baumannii clinical isolate 19-1 assessed as inhibition of bacterial growth incubated for 16 to 20 hrs by CLSI protocol based broth microdilution method; assay type: functional; conditions: time 16-20 hrs
[5] = Renal cytotoxicity against HK-2 cells incubated for 72 hrs by CCK8 assay; assay type: toxicity, cell-based; conditions: human
[6] = test system: Escherichia coli; experiment: Antibacterial activity against carbapenem-resistant Escherichia coli clinical isolate 231109W005 assessed as inhibition of bacterial growth incubated for 24 hrs by CLSI protocol based broth microdilution method; assay type: functional
[7] = test system: Klebsiella pneumoniae; experiment: Antibacterial activity against carbapenem-resistant Klebsiella pneumoniae clinical isolate ets74 assessed as inhibition of bacterial growth incubated for 24 hrs by CLSI protocol based broth microdilution method; assay type: functional
[8] = test system: Klebsiella pneumoniae; experiment: Antibacterial activity against carbapenem-resistant Klebsiella pneumoniae clinical isolate ets77 assessed as inhibition of bacterial growth incubated for 24 hrs by CLSI protocol based broth microdilution method; assay type: functional
[9] = test system: Klebsiella pneumoniae; experiment: Antibacterial activity against carbapenem-resistant Klebsiella pneumoniae clinical isolate ets80 assessed as inhibition of bacterial growth incubated for 24 hrs by CLSI protocol based broth microdilution method; assay type: functional
[10] = test system: Pseudomonas aeruginosa; experiment: Antibacterial activity against carbapenem-resistant Pseudomonas aeruginosa clinical isolate ets6 assessed as inhibition of bacterial growth incubated for 24 hrs by CLSI protocol based broth microdilution method; assay type: functional
[11] = test system: Pseudomonas aeruginosa; experiment: Antibacterial activity against carbapenem-resistant Pseudomonas aeruginosa clinical isolate ets33 assessed as inhibition of bacterial growth incubated for 24 hrs by CLSI protocol based broth microdilution method; assay type: functional
[12] = test system: Pseudomonas aeruginosa; experiment: Antibacterial activity against carbapenem-resistant Pseudomonas aeruginosa clinical isolate ets49 assessed as inhibition of bacterial growth incubated for 24 hrs by CLSI protocol based broth microdilution method; assay type: functional
[13] = test system: Pseudomonas aeruginosa; experiment: Antibacterial activity against carbapenem-resistant Pseudomonas aeruginosa clinical isolate ets83 assessed as inhibition of bacterial growth incubated for 24 hrs by CLSI protocol based broth microdilution method; assay type: functional
[14] = test system: Pseudomonas aeruginosa; experiment: Antibacterial activity against carbapenem-resistant Pseudomonas aeruginosa clinical isolate ets85 assessed as inhibition of bacterial growth incubated for 24 hrs by CLSI protocol based broth microdilution method; assay type: functional
[15] = test system: Acinetobacter baumannii; experiment: Antibacterial activity against carbapenem-resistant Acinetobacter baumannii clinical isolate ets30 assessed as inhibition of bacterial growth incubated for 24 hrs by CLSI protocol based broth microdilution method; assay type: functional
[16] = test system: Acinetobacter baumannii; experiment: Antibacterial activity against carbapenem-resistant Acinetobacter baumannii clinical isolate ets123 assessed as inhibition of bacterial growth incubated for 24 hrs by CLSI protocol based broth microdilution method; assay type: functional
[17] = test system: Acinetobacter baumannii; experiment: Antibacterial activity against carbapenem-resistant Acinetobacter baumannii clinical isolate ets178 assessed as inhibition of bacterial growth incubated for 24 hrs by CLSI protocol based broth microdilution method; assay type: functional
[18] = test system: Pseudomonas aeruginosa; experiment: Antibacterial activity against Pseudomonas aeruginosa ATCC 27853 assessed as decrease in bacterial concentration at 0.5 to 2 times of MIC measured after 2 hrs by time-kill kinetics assay; assay type: functional, organism-based
[19] = test system: Pseudomonas aeruginosa; experiment: Antibacterial activity against Pseudomonas aeruginosa ATCC 27853 assessed as bacterial concentration at 4 to 8 times of MIC measured after 1 hrs by time-kill kinetics assay; assay type: functional, organism-based
[20] = Toxicity in ICR mouse assessed as adverse effect at 15.4 mg/kg, iv administered as single dose; assay type: organism-based; conditions: in vivo
[21] = Nephrotoxicity against Sprague-Dawley rat assessed as increase in CRE level at 4 mg/kg, iv administered for 7 days by fully automated biochemistry analyzer XR200PLUS; assay type: toxicity, organism-based; conditions: in vivo, 168 h, time 7 day
[22] = AUC (0 to infinity) in male Sprague-Dawley rat at 3 mg/kg, iv measured after 24 hrs by LC-MS/MS analysis; assay type: ADME, organism-based; conditions: in vivo
[23] = Clearance in male Sprague-Dawley rat at 3 mg/kg, iv measured after 24 hrs by LC-MS/MS analysis; assay type: ADME, organism-based; conditions: in vivo
[24] = Protein binding in human plasma assessed as unbound fraction at 0.2 uM incubated for 6 hrs by LC-MS/MS analysis; assay type: ADME, cell-free
[25] = test system: Escherichia coli; experiment: Antibacterial activity against Escherichia coli ATCC BAA-2523 infected in ICR mouse model administered intravenously with compound at 1 and 6 hrs post-infection and measured after 7 days; assay type: functional; conditions: ATCC BAA-2523, 168 h, route iv, time 7 day
[26] = test system: Klebsiella pneumoniae; experiment: Antibacterial activity against carbapenem-resistant Klebsiella pneumoniae ATCC BAA-1705 infected in ICR mouse model assessed as survival rate at 2 mg/kg, iv administered at 1 and 6 hrs post-infection and measured after 7 days relative to control; assay type: functional; conditions: time 7 day
[27] = test system: Acinetobacter baumannii; experiment: Antibacterial activity against carbapenem-resistant Acinetobacter baumannii NCTC13304 infected in ICR mouse model administered intravenously with compound at 1 and 6 hrs post-infection and measured after 7 days; assay type: functional; conditions: NCTC13304, 168 h, route iv, time 7 day
[28] = test system: Acinetobacter baumannii; experiment: Antibacterial activity against carbapenem-resistant Acinetobacter baumannii NCTC13304 infected in ICR mouse model assessed as survival rate at 3 mg/kg, iv administered at 1 and 6 hrs post-infection and measured after 7 days relative to control; assay type: functional; conditions: NCTC13304, 168 h, time 7 day
[29] = test system: Klebsiella pneumoniae; experiment: Antibacterial activity against carbapenem-resistant Klebsiella pneumoniae clinical isolate KPN+19-15 infected in ICR mouse model administered intravenously with compound at 1 and 6 hrs post-infection and measured after 7 days; assay type: functional; conditions: 168 h, route iv, time 7 day
[30] = test system: Klebsiella pneumoniae; experiment: Antibacterial activity against carbapenem-resistant Klebsiella pneumoniae clinical isolate KPN+19-15 infected in ICR mouse model assessed as survival rate at 2 mg/kg, iv administered at 1 and 6 hrs post-infection and measured after 7 days relative to control; assay type: functional; conditions: 168 h, time 7 day
[31] = test system: Pseudomonas aeruginosa; experiment: Potentiation of rifampicin induced antibacterial activity against Pseudomonas aeruginosa ATCC 27853 assessed as rifampicin MIC at 0.008 microg/ml incubated 24 hrs by cation adjusted Mueller-Hinton broth based method; assay type: functional; conditions: dose 0.008 µg/ml
[32] = test system: Pseudomonas aeruginosa; experiment: Potentiation of rifampicin induced antibacterial activity against Pseudomonas aeruginosa ATCC 27853 assessed as rifampicin MIC at 0.016 microg/ml incubated 24 hrs by cation adjusted Mueller-Hinton broth based method; assay type: functional; conditions: dose 0.016 µg/ml
[33] = test system: Pseudomonas aeruginosa; experiment: Potentiation of rifampicin induced antibacterial activity against Pseudomonas aeruginosa ATCC 27853 assessed as rifampicin MIC at 0.03 microg/ml incubated 24 hrs by cation adjusted Mueller-Hinton broth based method; assay type: functional; conditions: dose 0.03 µg/ml
[34] = test system: Pseudomonas aeruginosa; experiment: Potentiation of rifampicin induced antibacterial activity against Pseudomonas aeruginosa ATCC 27853 assessed as rifampicin MIC at 0.25 microg/ml incubated 24 hrs by cation adjusted Mueller-Hinton broth based method; assay type: functional; conditions: dose 0.25 µg/ml
[35] = test system: Cell membrane; experiment: Disruption of cell membrane integrity in Pseudomonas aeruginosa ATCC 27853 assessed as morphological changes at 16 microg/ml incubated for 2 hrs by scanning electron microscopic analysis; conditions: dose 16.0 µg/ml

SMILES: CC(C)CCCCC(=O)N[C@@H](CCN)C(=O)N[C@H](C(=O)N[C@@H](CN)C(=O)N[C@H]1CCNC(=O)[C@H]([C@@H](C)O)NC(=O)[C@H](CCN)NC(=O)[C@H](CCN)NC(=O)[C@H]([C@@H](C)O)NC(=O)[C@@H](Cc2ccccc2)NC(=O)[C@H](CCN)NC1=O)[C@@H](C)O ({Heptanoyl(6-Me)}-[Dab]T[Dap][Dab][Dab][dF]T[Dab][Dab]T; lactam 4-C)
- MIC [1]: ≤ 0.03 µg/mL
- MIC [2]: ≤ 0.03 µg/mL
- MIC [3]: 0.125 µg/mL (≈ 0.107 µM)
- MIC [4]: ≤ 0.03 µg/mL
- IC50 at 72 h [5]: > 500 µg/mL
- MIC [6]: < 0.06 µg/mL
- MIC [7]: 0.5 µg/mL (≈ 0.43 µM)
- MIC [8]: 0.5 µg/mL (≈ 0.43 µM)
- MIC [9]: 0.25 µg/mL (≈ 0.215 µM)
- MIC [10]: 1 µg/mL (≈ 0.86 µM)
- MIC [11]: 0.5 µg/mL (≈ 0.43 µM)
- MIC [12]: 0.06 µg/mL (≈ 0.0516 µM)
- MIC [13]: 0.5 µg/mL (≈ 0.43 µM)
- MIC [14]: 0.5 µg/mL (≈ 0.43 µM)
- MIC [15]: < 0.06 µg/mL
- MIC [16]: 0.5 µg/mL (≈ 0.43 µM)
- MIC [17]: 0.5 µg/mL (≈ 0.43 µM)
- Activity [18]: inactive
- Activity [19]: Below limit of detection
- Activity [20]: Non-toxic
- Activity [21]: Non-toxic
- AUC(0-inf) [22]: 8280 ng·h/mL
- clearance [23]: 4.16 mL/min/kg
- fraction unbound at 6 h, 0.2 µM [24]: 0.232
- ED50 [25]: 1.86 mg/kg
- Activity [26]: 100%
- ED50 [27]: 0.83 mg/kg
- survival at 3 mg/kg [28]: 100%
- ED50 [29]: 0.38 mg/kg
- survival at 2 mg/kg [30]: 100%
- MIC [31]: 32 µg/mL
- MIC [32]: 32 µg/mL
- MIC [33]: 16 µg/mL
- MIC [34]: ≤ 0.06 µg/mL
- Activity [35]: Active
